# Reference: ChEMBL document CHEMBL6109051, “Structure guided modification of 2-chloro-5-(ethyl-phenyl-sulfamoyl)-N-[2-(2-oxo-pyrrolidin-1-yl)-phenyl]-benzamide to afford selective inhibitors of Cryptosporidium parvum N-myristoyltransferase” (Bioorg Med Chem Lett, 2025)
# How the values were obtained:
# [1] = Inhibition of Cryptosporidium parvum NMT
# Cryptosporidium parvum = assay: Antiparasitic activity against Cryptosporidium parvum assessed as inhibition of parasitic growth; format: functional, organism-based
# [2] = Selectivity index, ratio of IC50 for human NMT1 to IC50 for Cryptosporidium parvum NMT
# [3] = target: T1, Glycylpeptide N-tetradecanoyltransferase 1 (Homo sapiens, UniProt P30419); assay: Inhibition of human NMT1
# T1 sequence (P30419 whole entry): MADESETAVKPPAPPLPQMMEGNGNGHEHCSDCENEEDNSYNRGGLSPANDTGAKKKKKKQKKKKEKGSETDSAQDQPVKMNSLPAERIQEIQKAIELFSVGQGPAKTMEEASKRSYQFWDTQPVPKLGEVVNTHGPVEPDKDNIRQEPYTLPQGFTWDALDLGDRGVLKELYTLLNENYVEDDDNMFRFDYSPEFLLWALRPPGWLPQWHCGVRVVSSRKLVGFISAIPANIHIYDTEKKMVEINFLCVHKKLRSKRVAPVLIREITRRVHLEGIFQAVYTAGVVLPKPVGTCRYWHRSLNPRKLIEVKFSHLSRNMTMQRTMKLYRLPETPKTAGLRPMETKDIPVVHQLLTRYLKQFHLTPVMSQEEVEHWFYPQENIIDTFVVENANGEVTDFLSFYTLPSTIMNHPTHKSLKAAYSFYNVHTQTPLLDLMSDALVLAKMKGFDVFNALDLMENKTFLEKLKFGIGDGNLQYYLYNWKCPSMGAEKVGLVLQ
SMILES,IC50 [1] [µM],EC50 (Cryptosporidium parvum) [µM],Ratio IC50 [2],IC50 [3] [µM]
CCN1CCN(c2ccccc2NC(=O)c2cc(S(=O)(=O)N(CC)c3ccccc3)ccc2Cl)C1=O,2.8,16.4,> 44,> 125
CCN(c1ccccc1)S(=O)(=O)c1ccc(Cl)c(C(=O)Nc2ccccc2N2CC(CC)(CC)CC2=O)c1,> 125,> 20,–,–
CCN(c1ccccc1)S(=O)(=O)c1ccc(Cl)c(C(=O)Nc2ccccc2N2CCCC2=O)c1,3.5,3.5,1.4,–
CCN(c1ccccc1)S(=O)(=O)c1ccc(Cl)c(C(=O)Nc2ccccc2N2CCN(C)C2=O)c1,2.5,6.9,4.6,11.4
CCN(c1ccccc1)S(=O)(=O)c1ccc(Cl)c(C(=O)Nc2ccccc2N2CC(C)(C)CC2=O)c1,> 125,> 20,–,–
CCN(c1ccccc1)S(=O)(=O)c1ccc(Cl)c(C(=O)Nc2ccccc2N2CCN(CC3CC3)C2=O)c1,52.8,> 20,> 2,> 125
CCN(c1ccccc1)S(=O)(=O)c1ccc(Cl)c(C(=O)Nc2ccccc2N2CCC(C)(C)C2=O)c1,13.8,> 20,> 9,> 125
CCN(c1ccccc1)S(=O)(=O)c1ccc(Cl)c(C(=O)Nc2ccccc2N2CCN(C(C)C)C2=O)c1,> 125,> 20,–,–
CCN(c1ccccc1)S(=O)(=O)c1ccc(Cl)c(C(=O)Nc2ccccc2N2C(=O)CC(C)(C)C2=O)c1,> 125,> 20,–,–
